“Also recorded” adds a separate entry of the source.
Experiments:
Parkinson's Disease = assay: Pre-clinical efficacy study: Parkinson's Disease; assay type: in vivo; conditions: Rat
Text: (§1) It has also been determined that several non-cancer disorders are beneficially treated utilizing an administration regimen of a bipolar trans carotenoid such as TSC, as described below.

Hemorrhagic Stroke = assay: Pre-clinical efficacy study: Hemorrhagic Stroke; assay type: in vivo; conditions: Rat
Text: as §1

newly diagnosed GBM = assay: Phase ½ clinical trial of TSC with RT and TMZ in GBM; assay type: in vivo, human; conditions: for Observed Survival Rate with TSC Treatment (Kaplan-Meier): TSC 0.25 mg/kg IV 3 times per week about 45 minutes prior to RT, plus TMZ
Text: To date, TSC has been used in 148 human subjects […] […] A Phase 1⁄2 clinical trial was recently completed examining TSC in patients with GBM. The Phase 1⁄2 clinical trial in GBM enrolled 59 patients with newly diagnosed disease that received TSC in conjunction with radiation therapy (RT) and temozolomide (TMZ). In the Phase I portion of the trial TSC was initially administered three times per week at half-dose to three patients prior to radiation. Six additional patients received full dose TSC for six weeks in combination with radiation. […] Fifty additional patients were enrolled in the Phase II trial at full dose TSC in combination with TMZ and RT. Four weeks after completion of RT, all patients resumed TMZ for five days every four weeks, but no further TSC was administered. More specifically, fifty-nine patients with newly-diagnosed GBM were enrolled. Patients received standard of care (SOC) radiation therapy (RT) (2 Gy/day, 5 days/week for 6 weeks) and TMZ (75 mg/m2) starting within 5 weeks after a surgical resection of their tumor, if such surgery were possible. Patients receiving only needle biopsies (i.e., no surgery) were also enrolled. In addition to the SOC, TSC was administered 3 times per week, 0.25 mg/kg IV, usually on Monday, Wednesday and Friday, about 45 minutes prior to the RT sessions. Four weeks after completion of RT, patients began chemotherapy with TMZ for 5 days of the first week of a 4 week cycle. This continued for 6 such cycles. No TSC was administered during this chemotherapy.

Cancer Chemosensitizer = assay: Pre-clinical efficacy study: Cancer Chemosensitizer; assay type: in vivo; conditions: Rat
Text: as §1

Hemorrhagic Shock = assay: Pre-clinical efficacy study: Hemorrhagic Shock; assay type: in vivo
Text: as §1

[1] = Phase 1 and Phase 2 clinical trials of TSC, safety; assay type: in vivo; conditions: 148 human subjects
Text: A Phase ½ clinical trial was recently completed examining TSC in patients with GBM. The Phase ½ clinical trial in GBM enrolled 59 patients with newly diagnosed disease that received TSC in conjunction with radiation therapy (RT) and temozolomide (TMZ). In the Phase I portion of the trial TSC was initially administered three times per week at half-dose to three patients prior to radiation. Six additional patients received full dose TSC for six weeks in combination with radiation. […] Fifty additional patients were enrolled in the Phase II trial at full dose TSC in combination with TMZ and RT. Four weeks after completion of RT, all patients resumed TMZ for five days every four weeks, but no further TSC was administered.

Myocardial Infarction = assay: Pre-clinical efficacy study: Myocardial Infarction; assay type: in vivo; conditions: Pig
Text: as §1

VEGF A gene = assay: Expression of HIF1 targeted genes in hypoxic conditions; conditions: gene upregulated with hypoxia
Text: The subject disclosure relates to the treatment of various tumors and/or cancers (i.e., gliobastoma, pancreatic cancer, etc.). It is well established that tumors are hypoxic with many tumor types being highly hypoxic. Further, it is known that hypoxic tumors are more resistant to radiotherapy and chemotherapy. Through HIF1 alpha up-regulation, hypoxia is associated with multiple negative effects that lead to aggressive tumor phenotypes. These effects include increased angiogenesis, increased metastasis, as well as increased resistance to chemotherapy and radiation therapy. Hypoxia via HIF1a affects many genes involved in cancer progression. Bipolar trans carotenoids such as TSC alter expression of HIF1 targeted genes in hypoxic conditions.

DMBA breast tumors [2] = assay: DMBA breast tumor model, TSC before chemotherapy; assay type: in vivo; conditions: for tumor growth, timing of TSC injection: Day 2, FIG. 5
Protocol: Breast tumors were induced through injection of DMBA (dimethylbenzantracene) under the mammary tissue of female rats. The tumors usually grow in most rats and reach measurable conditions after 10 days.
The following studies used a method in which a 3-mL syringe is filled first with 1 ml of DMBA dissolved in sunflower seed oil (20 mg DMBA per mL of solution). Following that, 2 mL's of air are pulled into the syringe. The needle of the syringe is then inserted under the mammary tissue near a hind leg and the air in the syringe is carefully injected. The injection of the air forms a “pocket”, and then the 1 mL of DMBA solution is injected into that pocket.
After the tumors have grown up (about 10 days), their volumes are estimated by measuring the diameter (d) and the length (L) of the football-shaped tumors formed. This is done using calipers after feeling the tumor with one's fingers. To estimate the volume of the tumor, you multiply the diameter squared times the length and divide by 2: Tumor volume (in mm3)={(d in mm)^22}×(L in mm)
TSC or saline (controls) was injected in the tail vein of the rats at a volume of 0.1 mL and a dose of 0.25 mg/kg TSC about 1-2 hours before the chemotherapeutic agent was injected intraperitoneally (IP) in the rats.
In order to understand which dosages are efficacious when used with chemotherapy, a rat model of breast tumors was used. The model involves injecting the chemical dimethylbenzanthracene (DMBA) under the mammary gland of a female Sprague-Dawley rat. After a few days, tumors begin to grow and can be measured by feeling the football-shaped tumor under the skin and measured using calipers.

DMBA breast tumors [3] = assay: DMBA breast tumor model, TSC before chemotherapy; assay type: in vivo
Ischemic Stroke = assay: Pre-clinical efficacy study: Ischemic Stroke; assay type: in vivo
Text: as §1

Wound Healing = assay: Pre-clinical efficacy study: Wound Healing; assay type: in vivo; conditions: Pig
Text: as §1

Memory Recall = assay: Pre-clinical efficacy study: Memory Recall; assay type: in vivo; conditions: Rat
Text: as §1

Critical Limb Ischemia = assay: Pre-clinical efficacy study: Critical Limb Ischemia; assay type: in vivo; conditions: Mouse
Text: as §1

CC(/C=C/C=C(\C)C(=O)[O-])=C\C=C\C=C(C)\C=C\C=C(/C)C(=O)[O-].[Na+].[Na+] [TSC, trans sodium crocetinate]
Best Dosage (Parkinson's Disease): High
Best Dosage (Hemorrhagic Stroke): Low
Observed Survival Rate with TSC Treatment (Kaplan-Meier) (newly diagnosed GBM; 1 year): 71.2%
Observed Survival Rate with TSC Treatment (Kaplan-Meier) (newly diagnosed GBM; 2 years): 36.3%
reduction in tumor size (newly diagnosed GBM; 37 patients with partial resection or no resection, MRI): vast majority of these 37 patients showed reduction in tumor size
survival at 2 years vs historical controls (newly diagnosed GBM; all groups of patients administered TSC in addition to SOC treatment): better survival at 2 years
survival greater than rate in historical trial (newly diagnosed GBM; at both 1 and 2 years): 10%
survivability at two years (newly diagnosed GBM; biopsy-only patients): 42.9%
patients showing complete elimination of tumors (newly diagnosed GBM; full-dose patients): ~20%
effect on glioblastoma multiforme tumors (newly diagnosed GBM; low dose (0.25 mg/kg) 45 minutes before radiation): effective
dose-limiting toxicities (newly diagnosed GBM; nine patients, Phase I portion, half-dose and full dose TSC with radiation): No dose-limiting toxicities were identified
increase in chance of survival at two years (newly diagnosed GBM; subgroup of patients considered inoperable, vs control): over 100%
alive at two years (newly diagnosed GBM; subgroup of patients considered inoperable, less than 20 percent in the control): 40%
Best Dosage (Cancer Chemosensitizer): High
Best Dosage (Hemorrhagic Shock; Pig): Low
Best Dosage (Hemorrhagic Shock; Rat, low dose (for rats) 0.1 mg/kg, high 0.25 mg/kg): Low
serious adverse events [1]: no serious adverse events reported
Best Dosage (Myocardial Infarction): Low
VEGF A gene expression (VEGF A gene): down regulated
effect on tumor volume with cisplatin (DMBA breast tumors [2]; high dose (for rats) 0.25 mg/kg TSC 2 hours before 1 mg/kg cisplatin IP on days 0, 4, 11, 18, FIG. 2): efficacious; also recorded: significant improvement in tumor volume over the control
tumor growth, timing of TSC injection (DMBA breast tumors [2]; high dose TSC 2 hours before gemcitabine 7.5 mg/kg): best and best results
pseudoprogression (increase in tumor volume on day 7) (DMBA breast tumors [2]; high dose TSC 2 hours prior to doxorubicin): Pseudoprogression was also seen
tumor growth with doxorubicin (DMBA breast tumors [2]; high dose TSC 2 hours prior to doxorubicin, FIG. 7): marked reduction in tumor growth in comparison with the control group
pseudoprogression (increase in tumor volume on day 7) (DMBA breast tumors [2]; high dose TSC 2 hours prior to temozolomide, FIG. 6): pseudoprogression was seen
pseudoprogression (DMBA breast tumors [2]; high dose TSC 2 hrs. prior to paclitaxel): Pseudoprogression was also seen
tumor growth with paclitaxel (DMBA breast tumors [2]; high dose TSC 2 hrs. prior to paclitaxel, Days 0, 4, 8, 14, FIG. 8): marked reduction in tumor growth in comparison with the control group
tumor growth, timing of TSC injection (DMBA breast tumors [2]; high dose TSC concurrently, 1 hour before or 2 hours before gemcitabine 7.5 mg/kg): reduced tumor growth relative to control
tumor growth with gemcitabine (DMBA breast tumors [2]; high dose of TSC 2 hours before 5 mg/kg gemcitabine IP on days 0, 3, FIG. 4): substantially less tumor growth than those in the control group
effect on tumor volume with gemcitabine (DMBA breast tumors [2]; high dose of TSC 2 hours before 10 mg/kg gemcitabine IP on days 0, 3, day 3, FIG. 3): efficacious; also recorded: significant decrease in tumor volume
effect on tumor volume with cisplatin (DMBA breast tumors [3]; low dose (for rats) 0.1 mg/kg TSC IV 50 minutes before chemotherapy): not effective
effect on tumor volume with gemcitabine (DMBA breast tumors [3]; low dose of TSC 50 minutes before chemotherapy): not effective
Best Dosage (Ischemic Stroke; Rabbit): Low
Best Dosage (Ischemic Stroke; Rat): Low
Best Dosage (Wound Healing): High
Best Dosage (Memory Recall): High
Best Dosage (Critical Limb Ischemia): High

Source: patent US11185523B2, “Use of bipolar trans carotenoids with chemotherapy and radiotherapy for treatment of cancer” (DIFFUSION PHARMACEUTICALS LLC, priority 2016, dated 2021)
